{"source": "patent US9938260B2", "about": "“Soluble guanylate cyclase activators and their use” (GlaxoSmithKline Intellectual Property Development Limited, priority 2014, dated 2018)", "note": "Where a name gives a salt, the structure may show the parent alone.", "data": [{"target": "T1, soluble guanylate cyclase (sGC) (Rattus norvegicus, UniProt P20595)", "T1 construct": "endogenous in cells; host or cells: primary rat aortic smooth muscle cells", "T1 sequence (P20595 1-619)": "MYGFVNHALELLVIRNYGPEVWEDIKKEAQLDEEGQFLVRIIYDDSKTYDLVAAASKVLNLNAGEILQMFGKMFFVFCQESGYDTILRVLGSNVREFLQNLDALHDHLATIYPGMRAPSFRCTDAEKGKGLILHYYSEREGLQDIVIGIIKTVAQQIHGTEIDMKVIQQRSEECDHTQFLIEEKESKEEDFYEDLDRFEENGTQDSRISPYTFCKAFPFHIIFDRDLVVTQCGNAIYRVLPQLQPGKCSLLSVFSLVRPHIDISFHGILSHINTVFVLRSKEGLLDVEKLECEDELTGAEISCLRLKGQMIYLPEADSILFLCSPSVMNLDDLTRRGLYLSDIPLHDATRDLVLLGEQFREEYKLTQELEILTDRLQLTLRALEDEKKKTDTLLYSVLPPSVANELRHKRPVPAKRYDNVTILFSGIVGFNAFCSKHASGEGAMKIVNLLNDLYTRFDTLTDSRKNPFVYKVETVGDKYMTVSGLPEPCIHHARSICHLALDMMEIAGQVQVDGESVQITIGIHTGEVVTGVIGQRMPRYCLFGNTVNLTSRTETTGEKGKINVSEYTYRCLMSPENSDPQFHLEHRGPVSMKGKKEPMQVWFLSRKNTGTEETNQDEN", "T1 sequence (P19686 1-690 partner)": "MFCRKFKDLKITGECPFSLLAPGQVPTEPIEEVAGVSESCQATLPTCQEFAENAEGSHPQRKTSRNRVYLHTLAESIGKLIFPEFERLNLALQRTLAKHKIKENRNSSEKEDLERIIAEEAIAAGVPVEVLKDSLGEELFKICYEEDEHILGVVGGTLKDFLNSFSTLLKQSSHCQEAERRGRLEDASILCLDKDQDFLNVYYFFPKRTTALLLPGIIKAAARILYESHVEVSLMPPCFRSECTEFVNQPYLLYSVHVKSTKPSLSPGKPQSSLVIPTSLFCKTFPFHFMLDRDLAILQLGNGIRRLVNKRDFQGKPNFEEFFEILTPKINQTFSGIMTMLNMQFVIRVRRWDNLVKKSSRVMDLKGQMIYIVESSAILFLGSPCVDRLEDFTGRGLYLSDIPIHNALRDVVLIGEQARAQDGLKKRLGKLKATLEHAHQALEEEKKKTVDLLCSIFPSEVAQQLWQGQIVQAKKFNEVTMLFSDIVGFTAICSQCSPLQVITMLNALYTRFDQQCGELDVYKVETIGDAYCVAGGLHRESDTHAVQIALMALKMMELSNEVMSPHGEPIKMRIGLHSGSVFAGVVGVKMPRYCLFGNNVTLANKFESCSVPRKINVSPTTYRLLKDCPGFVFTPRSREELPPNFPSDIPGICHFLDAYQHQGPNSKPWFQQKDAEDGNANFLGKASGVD", "test": "Biological cellular assay: sGC activity by phosphorylation of VASP in rat aortic smooth muscle cells", "assay_type": "cell-based", "conditions": "primary rat aortic smooth muscle cells, pre-incubated with 10 μM ODQ, 30 min at 37° C., phospho-VASP (pSer239) fluorescent signal; read-out: Cell assay pEC50 (converted)", "description": "The activity of soluble guanylate cyclase (sGC) was tested in an assay based on measuring phosphorylation of the protein kinase G (PKG) substrate vasodilator-stimulated phosphoprotein (VASP) in rat aortic smooth muscle cells. […] Dimethylsulfoxide (DMSO) vehicle and varying concentrations of the compound to be tested were then added. Following a 30 min incubation at 37° C., media was aspirated and the cells were rinsed with phosphate-buffered saline (PBS) and fixed with 4% formaldehyde in PBS by incubating at room temperature for 20 min. Cells were then washed with PBS and permeabilized for 10 min using 0.1% triton X-100 in PBS. Following PBS rinsing, the cells were blocked for 90 min at room temperature with blocking buffer. The buffer was aspirated and the cells were treated overnight at 4° C. with primary antibody (pSer239-VASP, rabbit polyclonal Ab) diluted 1:500 in blocking buffer. Following three washes with 0.05% Tween 20, the cells were treated for 1 h at room temperature with a fluorescent labeled secondary antibody (IRDye® 800CW Donkey Anti-Rabbit IgG) diluted 1:2500 in blocking buffer with 0.05% Tween 20. Following two washes with PBS, infrared fluorescence was measured using an Odyssey Infrared Imaging System. The activity of a test compound was determined as the pEC50 value which is the concentration able to increase by 50% (vs. Bmax) the phospho-VASP fluorescent signal. Front. Pharmacol., 5 Jul. 2012|doi: 10.3389/fphar.2012.00128, Volume 3 July, 2012, Article number 128.", "units": {"EC50": "nM"}, "values": [{"molecule": "CCOC(=O)C1CCN(c2cccc(-c3cc(F)cc(F)c3OCc3ccc(C4CCN(CC#N)CC4)cc3C)n2)CC1", "note": "[Example 1, ethyl 1-(6-(2-((4-(1-(cyanomethyl)piperidin-4-yl)-2-methylbenzyl)oxy)-3,5-difluorophenyl)pyridin-2-yl)piperidine-4-carboxylate]", "EC50": 0.631}, {"molecule": "Cc1cc(C2CCN(CC(F)(F)F)CC2)ccc1COc1c(F)cc(F)cc1-c1cccc(N2CCC(C(=O)O)CC2)n1", "note": "[Example 5, 1-(6-(3,5-difluoro-2-((2-methyl-4-(1-(2,2,2-trifluoroethyl)piperidin-4-yl)benzyl)oxy)phenyl)pyridin-2yl)piperidine-4-carboxylic acid]", "EC50": 0.501}, {"molecule": "Cc1cc(C2CCN(C(=O)C3COC3)CC2)ccc1COc1c(F)cc(F)cc1-c1cccc(N2CCC(C(=O)O)CC2)n1", "note": "[Example 6, 1-(6-(3,5-difluoro-2-((2-methyl-4-(1-(oxetane-3-carbonyl)piperidin-4-yl)benzyl)oxy)phenyl)pyridin-2yl)piperidine-4-carboxylic acid]", "EC50": 0.1}, {"molecule": "Cc1cc(C2CCN(CC(F)(F)F)CC2)ncc1COc1c(F)cc(F)cc1-c1cccc(N2CCC(C(=O)O)CC2)n1", "note": "[Example 9, 1-(6-(3,5-difluoro-2-((4-methyl-6-(1-(2,2,2-trifluoroethyl)piperidin-4-yl)pyridin-3-yl)methoxy)phenyl)pyridin-2-yl)piperidine-4-carboxylic acid, sodium salt]", "EC50": 10}, {"molecule": "Cc1nc(C2CCN(CC(F)(F)F)CC2)ccc1COc1c(F)cc(F)cc1-c1cccc(N2CCC(C(=O)O)CC2)n1", "note": "[Example 14, 1-(6-(3,5-difluoro-2-((2-methyl-6-(1-(2,2,2-trifluoroethyl)piperidin-4-yl)pyridin-3-yl)methoxy)phenyl)pyridin-2-yl)piperidine-4-carboxylic acid]", "EC50": 10}, {"molecule": "Cc1nc(C2CCN(C3COC3)CC2)ccc1COc1c(F)cc(F)cc1-c1cccc(N2CCC(C(=O)O)CC2)n1", "note": "[Example 17, 1-(6-(3,5-difluoro-2-((2-methyl-6-(1-(oxetan-3-yl)piperidin-4-yl)pyridin-3-yl)methoxy)phenyl)pyridin-2-yl)piperidine-4-carboxylic acid]", "EC50": 79.4}, {"molecule": "Cc1nc(C2CCN(C3CCOC3)CC2)ccc1COc1c(F)cc(F)cc1-c1cccc(N2CCC(C(=O)O)CC2)n1", "note": "(stereo not shown) [Example 20, 1-(6-(3,5-difluoro-2-((2-methyl-6-(1-(tetrahydrofuran-3-yl)piperidin-4-yl)pyridin-3-yl)methoxy)phenyl)pyridin-2-yl)piperidine-4-carboxylic acid]", "EC50": 158}, {"molecule": "Cc1nc(C2CCN(CC3CCOC3)CC2)ccc1COc1c(F)cc(F)cc1-c1cccc(N2CCC(C(=O)O)CC2)n1", "note": "(stereo not shown) [Example 23, 1-(6-(3,5-difluoro-2-((2-methyl-6-(1-((tetrahydrofuran-3-yl)methyl)piperidin-4-yl)pyridin-3-yl)methoxy)phenyl)pyridin-2-yl)piperidine-4-carboxylic acid]", "EC50": 251}, {"molecule": "Cc1nc(C2CCN(CC#N)CC2)ccc1COc1c(F)cc(F)cc1-c1cccc(N2CCC(C(=O)O)CC2)n1", "note": "[Example 27, 1-(6-(2-((6-(1-(cyanomethyl)piperidin-4-yl)-2-methylpyridin-3-yl)methoxy)-3,5-difluorophenyl)pyridin-2-yl)piperidine-4-carboxylic acid, Sodium salt]", "EC50": 39.8}, {"molecule": "Cc1nc(C2CCN(C(=O)C3COC3)CC2)ccc1COc1c(F)cc(F)cc1-c1cccc(N2CCC(C(=O)O)CC2)n1", "note": "[Example 30, 1-(6-(3,5-difluoro-2-((2-methyl-6-(1-(oxetane-3-carbonyl)piperidin-4-yl)pyridin-3-yl)methoxy)phenyl)pyridin-2-yl)piperidine-4-carboxylic acid, Sodium salt,]", "EC50": 20}, {"molecule": "Cc1nc(C2CCN(C(=O)CO)CC2)ccc1COc1c(F)cc(F)cc1-c1cccc(N2CCC(C(=O)O)CC2)n1", "note": "[Example 33, 1-(6-(3,5-difluoro-2-((6-(1-(2-hydroxyacetyl)piperidin-4-yl)-2-methylpyridin-3-yl)methoxy)phenyl)pyridin-2-yl)piperidine-4-carboxylic acid, Sodium salt]", "EC50": 15.8}, {"molecule": "Cc1cc(C2CCN(C3COC3)CC2)ccc1COc1c(Cl)cccc1-c1cccc(N2CCC(C(=O)O)CC2)n1", "note": "[Example 36, 1-(6-(3-chloro-2-((2-methyl-4-(1-(oxetan-3-yl)piperidin-4-yl)benzyl)oxy)phenyl)pyridin-2-yl)piperidine-4-carboxylic acid, Sodium salt]", "EC50": 10}, {"molecule": "Cc1cc(C2CCN(C3COC3)CC2)ccc1COc1c(F)cc(F)cc1-c1cccc(N2CCC(C(=O)O)CC2)n1", "note": "[Example 39, 1-(6-(3,5-difluoro-2-((2-methyl-4-(1-(oxetan-3-yl)piperidin-4-yl)benzyl)oxy)phenyl)pyridin-2-yl)piperidine-4-carboxylic acid, Sodium salt]", "EC50": 0.794}, {"molecule": "Cc1cc(C2CCN(C3CCOC3)CC2)ccc1COc1c(F)cc(F)cc1-c1cccc(N2CCC(C(=O)O)CC2)n1", "note": "(stereo not shown) [Example 42, 1-(6-(3,5-difluoro-2-((2-methyl-4-(1-(tetrahydrofuran-3-yl)piperidin-4-yl)benzyl)oxy)phenyl)pyridin-2-yl)piperidine-4-carboxylic acid, Sodium salt]", "EC50": 2.51}, {"molecule": "Cc1cc(C2CCN(C3CC3)CC2)ccc1COc1c(F)cc(F)cc1-c1cccc(N2CCC(C(=O)O)CC2)n1", "note": "[Example 45, 1-(6-(2-((4-(1-cyclopropylpiperidin-4-yl)-2-methylbenzyl)oxy)-3,5-difluorophenyl)pyridin-2-yl)piperidine-4-carboxylic acid, Sodium salt]", "EC50": 3.16}, {"molecule": "COCCN1CCC(c2ccc(COc3c(F)cc(F)cc3-c3cccc(N4CCC(C(=O)O)CC4)n3)c(C)c2)CC1", "note": "[Example 48, 1-(6-(3,5-difluoro-2-((4-(1-(2-methoxyethyl)piperidin-4-yl)-2-methylbenzyl)oxy)phenyl)pyridin-2-yl)piperidine-4-carboxylic acid, Sodium salt]", "EC50": 15.8}, {"molecule": "Cc1cc(C2CCN(CCO)CC2)ccc1COc1c(F)cc(F)cc1-c1cccc(N2CCC(C(=O)O)CC2)n1", "note": "[Example 51, 1-(6-(3,5-difluoro-2-((4-(1-(2-hydroxyethyl)piperidin-4-yl)-2-methylbenzyl)oxy)phenyl)pyridin-2-yl)piperidine-4-carboxylic acid, Sodium salt]", "EC50": 31.6}, {"molecule": "Cc1cc(C2CCN(CCC(F)(F)F)CC2)ccc1COc1c(F)cc(F)cc1-c1cccc(N2CCC(C(=O)O)CC2)n1", "note": "[Example 54, 1-(6-(3,5-difluoro-2-((2-methyl-4-(1-(3,3,3-trifluoropropyl)piperidin-4-yl)benzyl)oxy)phenyl)pyridin-2-yl)piperidine-4-carboxylic acid, Sodium salt]", "EC50": 2.51}, {"molecule": "Cc1cc(C2CCN(C(=O)CO)CC2)ccc1COc1c(F)cc(F)cc1-c1cccc(N2CCC(C(=O)O)CC2)n1", "note": "[Example 57, 1-(6-(3,5-difluoro-2-((4-(1-(2-hydroxyacetyl)piperidin-4-yl)-2-methylbenzyl)oxy)phenyl)pyridin-2-yl)piperidine-4-carboxylic acid, Sodium salt]", "EC50": 0.0794}]}]}
